The source of these data is patent US11833144B2, “Treating autoimmune disease” (Mayo Foundation for Medical Education and Research, priority 2020, dated 2023).

The structures appear in SMILES notation.

One experiment has as its system murine B cells. Put plainly: Murine B cell proliferation (CellTrace Violet, cell number) and class switch to IgG1 in vitro. Format: cell-based, mouse. The conditions noted are these: for proliferation of mouse B cells (CTV dilution) / B cell proliferation, exogenous fatty acid alone / IgG1 class switch, exogenous fatty acid alone: LPS/IL-4 activated; for proliferation of mouse B cells (CTV dilution): SCD inhibitor alone; for rescue of proliferation and IgG1 class switch upon SSI-4 treatment: SSI-4 with exogenous fatty acid; for B cell proliferation, exogenous fatty acid alone / IgG1 class switch, exogenous fatty acid alone: fatty acid-BSA conjugate, no inhibitor. Here is the method:
Mouse B cells were isolated from pooled single cell suspensions of spleen and peripheral lymph nodes using CD19 Microbeads (Miltenyi) or Mouse B cell Isolation Kit (Stemcell Technologies). B cells were stimulated with LPS (10 μg/mL; Sigma-Aldrich) and recombinant IL-4 cytokine (10 ng/mL; Tonbo Bioscience) with or without SCD inhibitor SSI-4, and proliferation was measured by dilution of CellTrace Violet proliferation dye (Thermo Fisher Scientific). B cells were also stimulated with anti-IgM (10 μg/mL; Jackson ImmunoResearch), anti-CD40 (10 μg/mL; BioXcell) and IL-4 (10 ng/mL; Tonbo Bioscience), or TLR ligand CpG (2.5 μM; IDT), recombinant IL-4 and IL-5 (10 ng/mL; Tonbo Bioscience) cytokines. To test the function of monounsaturated and saturated fatty acids, B cells were activated in presence of exogenous fatty acid-BSA conjugate. Palmitoleic acid (NU-CHEK PREP, INC), palmitic acid (NU-CHEK PREP, INC), stearic acid (NU-CHEK PREP, INC) were conjugated with fatty acid free BSA (Sigma-Aldrich) as described elsewhere (Wang et al., Immunity 35:871-882 (2011)). Human B cells were activated with CpG OND2006 (2.5 μM; IDT), recombinant human cytokine IL-10 ([…]; Peprotech), IL-15 (10 ng/mL; Peprotech), IL-4 (10 ng/mL; Biolegend), IL-2 (10 unit/mL) and anti-human CD40 (1 μg/mL; BioXcell). Human B cell proliferation was measured by ^3[H]-thymidine incorporation (1 μCi/mL) (American Radiolabeled Chemicals). For analysis of surface markers, cells were stained in PBS containing 1% (w/v) bovine serum albumin on ice for 30 minutes, with anti-IgG1 (RMG1-1, Biolegend), anti-CD19 (ID3, Biolegend) anti-B220 (RA3-6B2, Biolegend), anti-CD4 (GK1.5, Biolegend), anti-CD8 (53-6.7, Biolegend), anti-CD25 (PC16, Biolegend), anti-GL7 (GL-7, Biolegend), anti-CD95 (Jo2, BD Biosciences), anti-CD138 (281-2, Biolegend), anti-IgD (11-26c.2a, Biolegend), anti-PD-1 (J43, ThermoFisher), anti-IgM (II/41, ThermoFisher). Antigen specific GC response was detected with tetramer NP-phycoerythrin conjugated with PE (Biosearch Technologies). CXCR5 was stained with biotinylated anti-CXCR5 (2G8) followed by staining with streptavidin-conjugated PE (both from BD Biosciences). Cell viability was assessed using the Fixable Dye Ghost 510 (Tonbo Bioscience) or Annexin V cell apoptosis kit with 7-AAD (ThermoFisher) following the manufacturer's protocol. Phosflow staining for phospho-S6 (S235/236) was performed using Phosflow Fix/Perm kit (BD Biosciences). Mitochondrial potential was measured by staining with 20 nM TMRM (ThermoFisher) following manufacturer's instructions. Flow cytometry was performed on the LSR II, LSR Fortessa (BD Biosciences) or Attune NxT (ThermoFisher) cytometers, and analysis was performed using FlowJo software (Tree Star).

Another experiment relates to activated murine B cells. Description: Seahorse OCR / ECAR in activated murine B cells. The format is cell-based, mouse. Conditions: exogenous fatty acid, 48 h. Here is the method:
(§1) The bioenergetic activities of the OCR and ECAR were measured using a Seahorse XFe96 Extracellular Flux Analyzed following established protocols (Agilent). Briefly, B cells were seeded at 200,000 cells/well on Cell-Tak (Corning) coated XFe96 plate with fresh XF media (Seahorse XF RPMI medium containing 10 mM glucose, 2 mM L-glutamine, and 1 mM sodium pyruvate, PH 7.4; all reagents from Agilent). OCR was measured in the presence of Oligomycin (1.5 μM; Sigma-Aldrich), FCCP (1.5 μM; Sigma-Aldrich), and Rotenone (1 μM; Sigma-Aldrich)/Antimycin A (1 μM; Sigma-Aldrich) in Mito Stress assay. For ECAR measurement, B cells were seeded in XFe96 plate with fresh Seahorse XF RPMI medium with 2 mM L-glutamine (PH 7.4), and treated with glucose (10 mM; Agilent), Oligomycin (1.5 and 2-DG (50 mM; Sigma-Aldrich) orderly in Glycolysis Stress assay.

Another experiment has as its system activated human B cells. Put plainly: Seahorse OCR / ECAR in activated human B cells. Format: cell-based. Conditions: exogenous fatty acid, 72 hours. The protocol:
as §1

Turning to `Cn1cnc(N)c2ncnc1-2` [3-MA, 3-methyladenine, reference compound], the “rescue of B cell proliferation and class switch to IgG1 in the presence of SSI-4” value in the experiment with murine B cells (3-MA 1 mM, wortmannin 1 μM) is on record as “successfully rescued”.

`CCOC(=O)[C@@]1(CCCCCCOc2ccc(Cl)cc2)CO1` [etomoxir, reference compound]: the “effect of OA treatment on class switch in presence of etomoxir” value in the experiment on murine B cells (OA plus etomoxir 40 μM, 72 hours) is on record as “negated the effects of OA treatment”. For the same molecule, the “B cell class switch to IgG1” value with murine B cells (etomoxir 40 μM, LPS/IL-4, 72 hours) is listed as “reduced B cell class switch”.

With `Cc1nnc(-c2ccc(N3CCC(Oc4ccccc4C(F)(F)F)CC3)nn2)s1` [MF438, reference compound], the “proliferation of mouse B cells (CTV dilution)” value in the experiment with murine B cells is given as “capable of inhibiting B cell proliferation”.

As for `CCCCCCCCCCCCCCCCCC(=O)O` [SA, stearic acid], the “rescue of proliferation and IgG1 class switch upon SSI-4 treatment” value in the experiment with murine B cells (LPS/IL-4) was “no rescue effects”. For the same molecule, in the experiment on murine B cells, the “B cell proliferation, exogenous fatty acid alone” value is “unable to promote” and the “IgG1 class switch, exogenous fatty acid alone” value was “unable to promote”.

For the molecule `CCCCCCCCCCCCCCCC(=O)O` [PA, palmitic acid], the “rescue of proliferation and IgG1 class switch upon SSI-4 treatment” value with murine B cells (LPS/IL-4) is given as “no rescue effects”. For the same molecule, in the experiment on murine B cells, the “B cell proliferation, exogenous fatty acid alone” value is given as “unable to promote” and the “IgG1 class switch, exogenous fatty acid alone” value was “unable to promote”.

Turning to `CCCCCC/C=C\CCCCCCCC(=O)O` [PO, palmitoleic acid], in the experiment with activated murine B cells, the “OCR upon LPS/IL-4 stimulation in mouse B cells” value is reported as “did enhance OCR”. For the same molecule, the “B cell respiration (OCR)” value in the experiment with activated murine B cells (CpG/IL-4/IL-5 (PO: CpG and anti-IgM/anti-CD40) stimulation) is reported as “did not promote respiration”. Also, the “respiration (OCR) in activated human B cells” value with activated human B cells is “did enhance OCR”. In addition, the “rescue of proliferation and IgG1 class switch in SCD1/2 deficient B cells” value in the experiment with murine B cells (B cells from Scd1 and Scd2 deficient mice, LPS/IL-4) is on record as “partial rescue effect”. The “rescue of proliferation and IgG1 class switch upon SSI-4 treatment” value in the experiment with murine B cells (LPS/IL-4) is on record as “substantial, but incomplete, rescue effects”. Also, the “IgG1 class switch, exogenous fatty acid alone” value in the experiment with murine B cells is “did not improve class switch”.

In the case of `CNC(=O)c1cccc(NC(=O)N2CCC(Oc3ccccc3Cl)CC2)c1` [A939572, reference compound], in the experiment on murine B cells, the “proliferation of mouse B cells (CTV dilution)” value is given as “capable of inhibiting B cell proliferation”.
